Experimental data: patent US12157730B2, “Heteroaryl derivative, method for producing same, and pharmaceutical composition comprising same as effective component” (VORONOI INC., priority 2019, dated 2024)

Biological target: T1, Ba/F3 cell EGFR Exon20 ins NPH (Homo sapiens, UniProt P00533, INS773NPH)
T1 construct: expressed in transfected cells; host or cells: Ba/F3
Assay: Ba/F3 cell proliferation suppression, EGFR Exon20 ins NPH
Format: cell-based
Settings: GI50 class; Ba/F3 cell line with NPH inserted at Exon20 of EGFR; 72 hours
Method in brief: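 Cells (3000–5000/well) plated 24 h before compound, 12-point 3-fold dilutions at 0.3 nM to 50 um final; Ba/F3 lines grown with 5 ng/ml IL-3. Viability by CellTiter-Glo luminescence after 72 h, growth ratio vs control, GI50 from curves; triplicate.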

Row | Ba/F3 (NPH) Activity | SMILES
1 | A (GI50 < 50 nM) | C=CC(=O)Nc1cc(Nc2cc(N3OCC[C@@H]3Cc3cccc(Cl)c3F)ncn2)c(OC)cc1N1CCN(C2CC2)CC1 [compound 1017, N-(5-((6-((S)-3-(3-chloro-2-fluorobenzyl)isoxazolidine-2-yl)pyrimidine-4-yl)amino)-2-(4-cyclopropylpiperazine-1-yl)-4-methoxyphenyl) acrylamide]
2 | A (GI50 < 50 nM) | C=CC(=O)Nc1cc(Nc2cc(N3OCC[C@@H]3c3cc(F)ccc3F)ncn2)c(OC)cc1N1CCC(N2CCN(C3CCC3)CC2)CC1 [Example 77, N-(2-(4-(4-cyclobutylpiperazine-1-yl)piperidine-1-yl)-5-((6-((R)-3-(2,5-difluorophenyl)isoxazolidine-2-yl)pyrimidine-4-yl)amino)-4-methoxyphenyl) acrylamide]
3 | A (GI50 < 50 nM) | C=CC(=O)Nc1cc(Nc2cc(N3OCC[C@@H]3c3cc(F)ccc3F)ncn2)c(OC)cc1N1CCN(C2CC2)CC1 [compound 299, N-(2-(4-cyclopropylpiperazine-1-yl)-5-((6-((R)-3-(2,5-difluorophenyl)isoxazolidine-2-yl)pyrimidine-4-yl)amino)-4-methoxyphenyl) acrylamide]
4 | A (GI50 < 50 nM) | C=CC(=O)Nc1cc(Nc2cc(N3OCC[C@@H]3Cc3cccc(Cl)c3F)ncn2)c(OC)cc1N1CCC(N2C[C@@H]3C[C@H]2CO3)CC1 [compound 1022, N-(2-(4-((1S,4S)-2-oxa-5-azabicyclo [2.2.1]heptane-5-yl)piperidine-1-yl)-5-((6-((S)-3-(3-chloro-2-fluorobenzyl)isoxazolidine-2-yl)pyrimidine-4-yl)amino)-4-methoxyphenyl) acrylamide]
5 | A (GI50 < 50 nM) | C=CC(=O)Nc1cc(Nc2cc(N3OCC[C@@H]3c3ccc(F)c(Cl)c3F)ncn2)c(OC)cc1N1CCC(N2CCN(C)CC2)CC1 [compound 605, N-(5-((6-((R)-3-(3-chloro-2,4-difluorophenyl)isoxazolidine-2-yl)pyrimidine-4-yl)amino)-4-methoxy-2-(4-(4-methylpiperazine-1-yl)piperidine-1-yl)phenyl) acrylamide]
6 | A (GI50 < 50 nM) | C=CC(=O)Nc1cc(Nc2cc(N3OCC[C@@H]3c3cc(F)ccc3F)ncn2)c(OC)cc1N1CCC(N2C[C@H]3C[C@@H]2CO3)CC1 [Example 259, N-(2-(4-((1R,4R)-2-oxa-5-azabicyclo[2.2.1]heptane-5-yl)piperidine-1-yl)-5-((6-((R)-3-(2,5-difluorophenyl)isoxazolidine-2-yl)pyrimidine-4-yl)amino)-4-methoxyphenyl) acrylamide]
7 | A (GI50 < 50 nM) | C=CC(=O)Nc1cc(Nc2cc(N3OCC[C@@H]3c3cc(F)ccc3F)ncn2)c(OC)cc1N1CCC(N2C[C@@H](C)O[C@@H](C)C2)CC1 [compound 714, N-(5-((6-((R)-3-(2,5-difluorophenyl)isoxazolidine-2-yl)pyrimidine-4-yl)amino)-2-(4-((2S,6R)-2,6-dimethylmorpholino)piperidine-1-yl)-4-methoxyphenyl) acrylamide]
8 | C (500 nM ≤ GI50 < 5000 nM) | C=CC(=O)Nc1cc(Nc2cc(N3OCC[C@@H]3c3ccc(C)nc3)ncn2)c(OC)cc1N1CCN(C2CC2)CC1 [Example 46, N-(2-(4-cyclopropylpiperazine-1-yl)-4-methoxy-5-((6-((R)-3-(6-methylpyridine-3-yl)isoxazolidine-2-yl)pyrimidine-4-yl)amino)phenyl) acrylamide]
9 | B (50 nM ≤ GI50 < 500 nM) | C=CC(=O)Nc1cc(Nc2cc(N3OCC[C@@H]3c3ccc4ccccc4c3)ncn2)c(OC)cc1N1CCC(N2CCN(C3CC3)CC2)CC1 [Example 151, N-(2-(4-(4-cyclopropylpiperazine-1-yl)piperidine-1-yl)-4-methoxy-5-((6-((R)-3-(naphthalene-2-yl)isoxazolidine-2-yl)pyrimidine-4-yl)amino)phenyl)acrylamide]
10 | A (GI50 < 50 nM) | C=CC(=O)Nc1cc(Nc2cc(N3OCC[C@@H]3c3ccc(C)nc3)ncn2)c(OC)cc1N(C)CCN(C)C [Example 36, N-(2-((2-(dimethylamino)ethyl)(methyl)amino)-4-methoxy-5-((6-((R)-3-(6-methylpyridine-3-yl)isoxazolidine-2-yl)pyrimidine-4-yl)amino)phenyl) acrylamide]
11 | A (GI50 < 50 nM) | C=CC(=O)Nc1cc(Nc2cc(N3OCC[C@@H]3c3cccc(F)c3Cl)ncn2)c(OC)cc1N1CCN(C)CC1 [compound 552, N-(5-((6-((R)-3-(2-chloro-3-fluorophenyl)isoxazolidine-2-yl)pyrimidine-4-yl)amino)-4-methoxy-2-(4-methylpiperazine-1-yl)phenyl)acrylamide]
12 | A (GI50 < 50 nM) | C=CC(=O)Nc1cc(Nc2cc(N3OCC[C@@H]3c3cccc(F)c3F)ncn2)c(OC)cc1N1CCC(N2CCN(C3CCC3)CC2)CC1 [Example 182, N-(2-(4-(4-cyclobutylpiperazine-1-yl)piperidine-1-yl)-5-((6-((R)-3-(2,3-difluorophenyl)isoxazolidine-2-yl)pyrimidine-4-yl)amino)-4-methoxyphenyl) acrylamide]
13 | A (GI50 < 50 nM) | C=CC(=O)Nc1cc(Nc2cc(N3OCC[C@@H]3c3cccc(C#N)c3)ncn2)c(OC)cc1N1CCC(N2CCOC[C@H]2C)CC1 [compound 388, N-(5-((6-((R)-3-(3-cyanophenyl)isoxazolidine-2-yl)pyrimidine-4-yl)amino)-4-methoxy-2-(4-((R)-3-methylmorpholino)piperidine-1-yl)phenyl) acrylamide]
14 | A (GI50 < 50 nM) | C=CC(=O)Nc1cc(Nc2cc(N3OCC[C@@H]3c3ccc(F)c(Cl)c3)ncn2)c(OC)cc1N1CCC(N2CCN(C3CCCC3)CC2)CC1 [Example 99, N-(5-((6-((R)-3-(3-chloro-4-fluorophenyl)isoxazolidine-2-yl)pyrimidine-4-yl)amino)-2-(4-(4-cyclopentylpiperazine-1-yl)piperidine-1-yl)-4-methoxyphenyl) acrylamide]
15 | A (GI50 < 50 nM) | C=CC(=O)Nc1cc(Nc2cc(N3OCC[C@@H]3Cc3cccc(Cl)c3Cl)ncn2)c(OC)cc1N1CCC(N2C[C@@H](C)O[C@@H](C)C2)CC1 [compound 1010, N-(5-((6-((S)-3-(2,3-dichlorobenzyl)isoxazolidine-2-yl)pyrimidine-4-yl)amino)-2-(4-((2S,6R)-2,6-dimethylmorpholino)piperidine-1-yl)-4-methoxyphenyl) acrylamide]
16 | A (GI50 < 50 nM) | C=CC(=O)Nc1cc(Nc2cc(N3OCC[C@@H]3c3ccc(F)cc3)ncn2)c(OC)cc1N1CCC(N2C[C@H]3CCN(C)[C@H]3C2)CC1 [compound 541, N-(5-((6-((R)-3-(4-fluorophenyl)isoxazolidine-2-yl)pyrimidine-4-yl)amino)-4-methoxy-2-(4-((3aR,6aR)-1-methylhexahydropyrrolo [3,4-b]pyrrole-5(1H)-yl)piperidine-1-yl)phenyl)acrylamide]
17 | A (GI50 < 50 nM) | C=CC(=O)Nc1cc(Nc2cc(N3OCC[C@@H]3Cc3cccc(Cl)c3Cl)ncn2)c(OC)cc1N1CCN(C)CC1 [compound 983, N-(5-((6-((S)-3-(2,3-dichlorobenzyl)isoxazolidine-2-yl)pyrimidine-4-yl)amino)-4-methoxy-2-(4-methylpiperazine-1-yl)phenyl)acrylamide]
